According to patent US8636979B2, “TLR 4 and 9 receptors agonists for preventing septic complications of post-traumatic immunodepression in patients hospitalized for severe traumatic injuries” (Chu Nantes, priority 2009, dated 2014):

Test system: methicillin-sensitive Staphyloccocus aureus (MSSA) pneumonia after haemorrhagic shock
Experiment: Mortality from MSSA pneumonia after haemorrhagic shock (post-haemorrhagic SI model)
Assay type: in vivo
Conditions: Balb/cJ mice; i.v. injection immediately after resuscitation from haemorrhagic shock; 7×10^6 CFU MSSA 24 h later; survival followed 7 days
Procedure: An intra-venous injection of CpG-ODN 1668 (100 μl to […]) (HP-CpG group) or the same volume of isotonic saline solution (HP group) was given immediately after resuscitation from haemorrhagic shock. Twenty-four hours later the mice were inoculated with 7×10^6 CFU of MSSA. The survival rate of each group was measured twice a day for 7 days (168 hours). Each group comprised 8 animals. Data are given as a percentage and are representative of three independent experiments each having the same statistical significance (*p≦0.05). HP Group (black diamonds), HP-CpG group (blank squares).
Male Balb/cJ mice (20-24 grams) were obtained from the Janvier breeding company (Laval, France). Mice were kept on a day/night cycle of 12 hours with free access to food and drink. […]
A strain of methicillin-sensitive Staphyloccocus aureus or <<MSSA>> (ATCC strain 29213) was cultured 16 hours at 37° C. in a tryptic soy medium (Grosseron, Saint Herblain, France). […] The bacterial concentration was systematically controlled by quantitative culture. […]
Mortality was assessed twice a day for 7 days. […] Capillary glycaemia was measured using a haemaglucotest (Boehringer Ingelheim France), Venous blood gasometry, reflecting shock intensity and quality of resuscitation, was measured on central venous blood taken from the right atrium.

## monophosphoryl lipid A [MPLA]
  mortality in post-haemorrhagic SI model with MSSA pneumonia: significantly lowered mortality
